One assay relates to integrins. The settings on record: cited from earlier work.
In assay [1] the test system is human lung fibroblasts (HFL-1 cells). Description: Antisense transfection: thrombin-induced proliferation of HFL-1 cells. The settings on record: thrombin-treated cells. The format is cell-based. Here is the method: Thrombin stimulates proliferation of human lung fibroblasts. Thrombin-treated human lung fibroblasts (HFL-1 cells) proliferated 53% in response to thrombin. 24 hours before treatment with thrombin, HFL-1 cells were treated with an LID complex comprising [K]16-peptide 6, lipofectin and a 20-mer antisense oligonucleotide directed against the thrombin receptor PAR-1 in the optimal ratio and mixing order prepared as described in the Materials and Methods section and the Examples above. The antisense oligonucleotide-containing complex was in contact with the cells for 4 hours. 24 hours after the start of the treatment with the complex, treatment with thrombin was carried out.

Like-named read-outs stand apart in the source and are kept apart here.

With GACRRETAWACG [Peptide 6], the integrin specificity entry in the assay with integrins is “α5β1-specific”. thrombin: the “proliferation in response to thrombin” value in assay [1] came out at 53%.

For GACRGDMFGCA [Peptide 1], the integrin specificity entry with integrins was “has affinity for α5 and αv integrins but is non-specific”.

In the case of GACDCRGDCFCA [Peptide 5], the integrin specificity entry in the assay on integrins is given as “Peptide 5 (αv)”; in the assay on integrins (listed as peptide 5), “has high affinity for integrin αv but is not αv-specific”.

The values are drawn from patent publication US6458026B1, “Integrin-targeting vectors having transfection activity” (ICH Productions Limited, priority 1997, dated 2002).
